We go through three compounds from patent US7902384B2, “Estrogenic-active compounds and application thereof” (National Taiwan University, priority 2008, dated 2011).

Where “and” joins values, the source holds several entries; their conditions need not be identical. Identical values can stand only once.

The target in experiment [1] is T1, GAL4-hERβ (Homo sapiens, UniProt Q92731). The experiment can be described thus: Estrogenic activity assay with co-addition of 1 nM 17β-estradiol (antagonism or synergistic agonism), GAL4-hERβ reporter in CHO-k1 cells. The note with it: co-added with 1 nM 17β-estradiol, vs single addition of estrogen, p<0.05.
T1 sequence (Q92731 264-498 limits assumed): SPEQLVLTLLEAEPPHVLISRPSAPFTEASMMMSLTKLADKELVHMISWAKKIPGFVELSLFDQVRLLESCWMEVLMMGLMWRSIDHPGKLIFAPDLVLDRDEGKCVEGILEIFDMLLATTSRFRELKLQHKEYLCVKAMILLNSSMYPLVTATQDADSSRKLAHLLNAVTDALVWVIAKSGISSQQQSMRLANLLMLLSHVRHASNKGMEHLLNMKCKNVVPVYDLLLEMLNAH
Source text: (§2) Plasmid pBKCMV containing GAL4hERα (or ERβ) ligand binding domain (LBD) chimeric receptors and plasmid containing (UAS)4-alkaline phosphatase (ALP) reporter gene were co-transfected into Chinese hamster cells (CHO-k1). Compounds with estrogenic activity would interact with estrogen-specific ER to induce the binding of GAL4 and upstream activation sequence (UAS) specifically to initiate the expression of ALP gene. Therefore, the ALP activity can be used to determine whether the samples to be assayed have the estrogenic activity.
(§3) Cells in high confluence were plated onto 96-well culture plate the day before transfection. The plate was then washed to remove the serum during the day of transfection, followed by addition of two plasmid DNA, GAL4-hERα and (UAS)4-ALP in the ratio of 5:1, or GAL4-hERβ and (UAS)4-ALP in the ratio of 4:1, together with Lipofectamine™ 2000 transfection agent and culture medium to form DNA-liposome complex for 5 h.
(§4) The sample to be assayed was added into the medium of transfected cells and cultivated for 2 days.
The target in experiment [2] is T2, GAL4-hERα (Homo sapiens, UniProt P03372).
T2 sequence (P03372 311-547 limits assumed): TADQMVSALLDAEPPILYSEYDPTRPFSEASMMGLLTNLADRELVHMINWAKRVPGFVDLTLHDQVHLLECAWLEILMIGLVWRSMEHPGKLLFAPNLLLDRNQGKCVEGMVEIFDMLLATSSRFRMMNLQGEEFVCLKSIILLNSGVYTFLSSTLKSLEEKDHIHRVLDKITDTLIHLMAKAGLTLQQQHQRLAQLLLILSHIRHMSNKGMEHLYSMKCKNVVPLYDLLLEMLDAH
The experiment can be described thus: Estrogenic activity assay: GAL4-hERα LBD / (UAS)4-ALP reporter in transfected CHO-k1 cells, single addition of sample. The settings on record: for EC50: read-out: EC50 for ERα (converted). It is filed as cell-based. More on the design: expressed in transfected cells; host or cells: CHO-k1 (Chinese hamster cells). From the text: (§1) First, a method for assessing the estrogenic activity in the field samples was established. This method comprises: preparing a cell line transfected with plasmids which can screen estrogenic activity substances. […] The reporter gene in the plasmid was expressed when the sample to be assayed contains estrogenic activity. Among them, the samples to be assayed in the examples of the invention include Loliolide, (4S,6S)-4-Hydroxy-6-nonadecyl-tetrahydro-pyran-2-one, (4R,6S)-4-Hydroxy-6-nonadecyl-tetrahydro-pyran-2-one. […] The details of establishing the assessing method are described as follows: […]

Experiment [3] concerns the target T1, GAL4-hERβ. The experiment can be described thus: Estrogenic activity assay: GAL4-hERβ LBD / (UAS)4-ALP reporter in transfected CHO-k1 cells, single addition of sample. It is filed as cell-based. More on the design: expressed in transfected cells; host or cells: CHO-k1 (Chinese hamster cells). The settings on record: for EC50: read-out: EC50 for ERβ (converted); for ERβ versus ERα selectivity of activation: comparison of ERα and ERβ reporter activation.
Source text: as §1

In experiment [4] the target is T2, GAL4-hERα. The experiment can be described thus: Estrogenic activity assay with co-addition of 1 nM 17β-estradiol (antagonism or synergistic agonism), GAL4-hERα reporter in CHO-k1 cells. The settings on record: co-added with 1 nM 17β-estradiol, vs single addition of estrogen, p<0.05.
Source text: as §2, §3, §4
Where [5] appears, read: ALP reporter, CHO-k1, single addition.

As usually defined, the EC50 is the concentration giving half of the maximal effect.

On to `CC1(C)C[C@H](O)C[C@@]2(C)OC(=O)C=C12` [Loliolide], for which the “concentration at which activation of ERβ due to estrogen was significantly decreased” value at GAL4-hERβ [1] amounted to 204 µM. For the same compound, on GAL4-hERα [2], the “concentration at which maximal activation of ERα activity was achieved” value (“concentration … of ERα activity was achieved” for short) is 20 µg/mL, the “concentration at which maximal activation of the estrogenic activity was achieved (ERα)” value is 102.0 µM and the EC50 is 54.2 µM. Also, on GAL4-hERβ [3] (setting [5]), the “concentration at which maximal activation of ERβ activity was achieved” value (“concentration … of ERβ activity was achieved” for short) came out at 20 µg/mL; the “concentration at which maximal activation of the estrogenic activity was achieved (ERβ)” value turned out to be 102.0 µM; the EC50 is 17.9 µM and 18 µM. At GAL4-hERβ [3], the “ERβ versus ERα selectivity of activation” value is “better activation efficiency in ERβ”. In addition, the “concentration at which activation of ERα due to estrogen was significantly decreased” value at GAL4-hERα [4] is 10.1 µM.

On to `CCCCCCCCCCCCCCCCCCC[C@H]1C[C@H](O)CC(=O)O1` [(4S,6S)-4-Hydroxy-6-nonadecyl-tetrahydro-pyran-2-one], for which the “concentration at which activation of ERβ due to estrogen was significantly decreased” value at GAL4-hERβ [1] is 2 µg/mL. Moreover, on GAL4-hERα [2], the “concentration … of ERα activity was achieved” value is 10 µg/mL and the EC50 was 16.2 µM. In addition, at GAL4-hERβ [3] (setting [5]), the “concentration … of ERβ activity was achieved” value worked out at 10 µg/mL and the EC50 is 4.68 µM. For the same compound, the “ERβ versus ERα selectivity of activation” value at GAL4-hERβ [3] was “better activation efficiency in ERβ”. In addition, the “concentration at which activation of ERα due to estrogen was significantly decreased” value on GAL4-hERα [4] came out at 1 µg/mL.

Turning to `CCCCCCCCCCCCCCCCCCC[C@H]1C[C@@H](O)CC(=O)O1` [(4R,6S)-4-Hydroxy-6-nonadecyl-tetrahydro-pyran-2-one], the “concentration at which activation of ERβ due to estrogen was significantly decreased” value on GAL4-hERβ [1] was 2 µg/mL. In addition, the “concentration … of ERα activity was achieved” value on GAL4-hERα [2] amounted to 20 µg/mL. Also, at GAL4-hERβ [3] (setting [5]), the “concentration … of ERβ activity was achieved” value was determined as 10 µg/mL and the EC50 is 8.94 µM. For the same compound, the “ERβ versus ERα selectivity of activation” value on GAL4-hERβ [3] is listed as “better activation efficiency in ERβ”. Further, the “concentration at which activation of ERα due to estrogen was significantly decreased” value on GAL4-hERα [4] is 2 µg/mL.
